Measurements as given in ChEMBL document CHEMBL6092192 (J Med Chem, 2024).
Activity calls are given as the source filed them. The calls are words filed in the database; no cut-off is given here.

Assays:
[1] = biological target: T1, ATP-dependent translocase ABCB1 (Homo sapiens, UniProt P08183); test: Activation of ABCB1 ATPase activity (unknown origin) infected in insect cells by measuring fold change at upto 40 uM incubated for 20 mins in presence of Mg-ATP by spectrophotometric analysis; settings: Insect cell, read-out: FC
[2] = Toxicity in BALB/c nude mouse xenografted with […] CT26/TAXOL cells assessed as effect on kidney at 100 mg/kg/day, IG measured after 14 days by H and E staining based analysis; assay type: organism-based; settings: in vivo, po, 336 h, time 14 day
CT26/TAXOL [3] = test: Antitumor T-cell immune response in […] cells xenografted in BALB/c nude mouse model assessed as reduction in tumor volume at 100 mg/kg/day, IG in presence of anti-PD-1/paclitaxel measured after 14 days; assay type: functional, organism-based; settings: time 14.0 day
KB-C2 [4] = test: Cytotoxicity against human KB-C2 cells assessed as survival rate at 2 uM measured after 72 hrs by MTT assay relative to control; assay type: functional; settings: read-out: Survival
[5] = Toxicity in BALB/c nude mouse xenografted with […] CT26/TAXOL cells assessed as effect on brain at 100 mg/kg/day, IG in presence of paclitaxel measured after 14 days by H and E staining based analysis; assay type: organism-based; settings: in vivo, po, 336 h, time 14 day
[6] = Toxicity in BALB/c nude mouse xenografted with […] CT26/TAXOL cells assessed as effect on heart at 100 mg/kg/day, IG in presence of paclitaxel/anti-PD-1 measured after 14 days by H and E staining based analysis; assay type: organism-based; settings: in vivo, po, 336 h, time 14 day
[7] = Toxicity in BALB/c nude mouse xenografted with […] CT26/TAXOL cells assessed as effect on lung at 100 mg/kg/day, IG measured after 14 days by H and E staining based analysis; assay type: organism-based; settings: in vivo, po, 336 h, time 14 day
[8] = Toxicity in BALB/c nude mouse xenografted with […] CT26/TAXOL cells assessed as effect on liver at 100 mg/kg/day, IG in presence of paclitaxel measured after 14 days by H and E staining based analysis; assay type: organism-based; settings: in vivo, po, 336 h, time 14 day
[9] = Toxicity in BALB/c nude mouse xenografted with […] CT26/TAXOL cells assessed as effect on heart at 100 mg/kg/day, IG measured after 14 days by H and E staining based analysis; assay type: organism-based; settings: in vivo, po, 336 h, time 14 day
CT26/TAXOL [10] = test: Antitumor T-cell immune response in […] cells xenografted in BALB/c nude mouse model at 100 mg/kg/day, IG in presence of anti-PD-1/paclitaxel measured after 14 days; assay type: functional, organism-based; settings: time 14.0 day
[11] = AUC (0 to infinity) in 12 hrs fasted Sprague-Dawley rat at 1 mg/kg, iv measured upto 720 mins by HPLC-MS/MS analysis; assay type: ADME, organism-based; settings: in vivo
[12] = AUC (0 to t) in 12 hrs fasted Sprague-Dawley rat at 1 mg/kg, iv measured upto 720 mins by HPLC-MS/MS analysis; assay type: ADME, organism-based; settings: in vivo
KB-C2 [13] = test: Reversal of paclitaxel resistance in human KB-C2 cells assessed as reversal fold by measuring ratio of paclitaxel IC50 to paclitaxel IC50 in presence of test compound at 4 uM incubated for 72 hrs by MTT assay; assay type: functional
[14] = Toxicity in BALB/c nude mouse xenografted with […] CT26/TAXOL cells assessed as mortality at 100 mg/kg/day, IG measured upto 14 days; assay type: organism-based; settings: in vivo, po, 336 h, time < 14 day
CT26/TAXOL [15] = test: Antitumor T-cell immune response in […] cells xenografted in BALB/c nude mouse model assessed as reduction in tumor weight at 100 mg/kg/day, IG in presence of anti-PD-1/paclitaxel measured after 14 days; assay type: functional, organism-based; settings: time 14.0 day
SW-620 [16] = test: Cytotoxicity against human SW620 cells assessed as survival rate at 2 uM measured after 72 hrs by MTT assay relative to control; assay type: functional; settings: read-out: Survival
[17] = Half life in 12 hrs fasted Sprague-Dawley rat at 1 mg/kg, iv measured upto 720 mins by HPLC-MS/MS analysis; assay type: ADME, organism-based; settings: in vivo
[18] = Reversal of paclitaxel resistance in HEK293 cells transfected with pcDNA3.1 assessed as reversal fold by measuring ratio of paclitaxel IC50 to paclitaxel IC50 in presence of test compound at 2 uM incubated for 72 hrs by MTT assay; assay type: functional, Homo sapiens
[19] = Oral bioavailability in 12 hrs fasted Sprague-Dawley rat at 10 mg/kg measured upto 720 mins by HPLC-MS/MS analysis; assay type: ADME, organism-based; settings: in vivo
CD8-positive T cell = test: Activation of immune response in human CD8-positive T cell assessed as increase in granzyme level at 4 uM by ELISA method; assay type: functional, cell-based
[20] = biological target: Multidrug resistance-associated protein 1 (Homo sapiens, UniProt P33527); test: Induction of thermal stabilization of ABCC1 in human SW620/AD300 cells at 200 uM measured after 30 mins by thermal shift assay; assay type: cell-based; settings: sw620/ad300, 0.5 h
HEK293 = test: Cytotoxicity against HEK293 cells harbouring ABCB1 assessed as survival rate at 2 uM measured after 72 hrs by MTT assay relative to control; assay type: functional; settings: Homo sapiens, read-out: Survival
[21] = Toxicity in BALB/c nude mouse xenografted with […] CT26/TAXOL cells assessed as change in body weight at 100 mg/kg/day, IG measured upto 14 days; assay type: organism-based; settings: in vivo, po, 336 h, time < 14 day
SW-620 [22] = test: Cytotoxicity against human SW620 cells assessed as survival rate at 4 uM measured after 72 hrs by MTT assay relative to control; assay type: functional; settings: read-out: Survival
[23] = Toxicity in BALB/c nude mouse xenografted with […] CT26/TAXOL cells assessed as effect on spleen at 100 mg/kg/day, IG in presence of paclitaxel/anti-PD-1 measured after 14 days by H and E staining based analysis; assay type: organism-based; settings: in vivo, po, 336 h, time 14 day
[24] = biological target: T1, ATP-dependent translocase ABCB1; test: Induction of thermal stabilization of ABCB1 in human SW620/AD300 cells at 200 uM measured after 30 mins by thermal shift assay; assay type: cell-based; settings: sw620/ad300, 0.5 h
[25] = Toxicity in Sprague-Dawley rat assessed as fatality at 250 to 1000 mg/kg, po measured for 14 days administered as single dose; assay type: organism-based; settings: in vivo, 336 h, dose 250-1000 mg/kg, time 14 day
KB-C2 [26] = test: Reversal of paclitaxel resistance in human KB-C2 cells assessed as reversal fold by measuring ratio of paclitaxel IC50 to paclitaxel IC50 in presence of test compound at 2 uM incubated for 72 hrs by MTT assay; assay type: functional
CT26/TAXOL [27] = test: Antitumor T-cell immune response in […] cells xenografted in BALB/c nude mouse model assessed as reduction in tumor growth at 100 mg/kg/day, IG measured after 14 days; assay type: functional, organism-based; settings: time 14.0 day
[28] = Toxicity in BALB/c nude mouse xenografted with […] CT26/TAXOL cells assessed as effect on liver at 100 mg/kg/day, IG measured after 14 days by H and E staining based analysis; assay type: organism-based; settings: in vivo, po, 336 h, time 14 day
[29] = MRT (0 to t) in 12 hrs fasted Sprague-Dawley rat at 10 mg/kg, po measured upto 720 mins by HPLC-MS/MS analysis; assay type: ADME, organism-based; settings: in vivo
[30] = Reversal of paclitaxel resistance in HEK293 cells harbouring ABCB1 assessed as reversal fold by measuring ratio of paclitaxel IC50 to paclitaxel IC50 in presence of test compound at 2 uM incubated for 72 hrs by MTT assay; assay type: functional, Homo sapiens

T1 sequence (P08183 whole entry): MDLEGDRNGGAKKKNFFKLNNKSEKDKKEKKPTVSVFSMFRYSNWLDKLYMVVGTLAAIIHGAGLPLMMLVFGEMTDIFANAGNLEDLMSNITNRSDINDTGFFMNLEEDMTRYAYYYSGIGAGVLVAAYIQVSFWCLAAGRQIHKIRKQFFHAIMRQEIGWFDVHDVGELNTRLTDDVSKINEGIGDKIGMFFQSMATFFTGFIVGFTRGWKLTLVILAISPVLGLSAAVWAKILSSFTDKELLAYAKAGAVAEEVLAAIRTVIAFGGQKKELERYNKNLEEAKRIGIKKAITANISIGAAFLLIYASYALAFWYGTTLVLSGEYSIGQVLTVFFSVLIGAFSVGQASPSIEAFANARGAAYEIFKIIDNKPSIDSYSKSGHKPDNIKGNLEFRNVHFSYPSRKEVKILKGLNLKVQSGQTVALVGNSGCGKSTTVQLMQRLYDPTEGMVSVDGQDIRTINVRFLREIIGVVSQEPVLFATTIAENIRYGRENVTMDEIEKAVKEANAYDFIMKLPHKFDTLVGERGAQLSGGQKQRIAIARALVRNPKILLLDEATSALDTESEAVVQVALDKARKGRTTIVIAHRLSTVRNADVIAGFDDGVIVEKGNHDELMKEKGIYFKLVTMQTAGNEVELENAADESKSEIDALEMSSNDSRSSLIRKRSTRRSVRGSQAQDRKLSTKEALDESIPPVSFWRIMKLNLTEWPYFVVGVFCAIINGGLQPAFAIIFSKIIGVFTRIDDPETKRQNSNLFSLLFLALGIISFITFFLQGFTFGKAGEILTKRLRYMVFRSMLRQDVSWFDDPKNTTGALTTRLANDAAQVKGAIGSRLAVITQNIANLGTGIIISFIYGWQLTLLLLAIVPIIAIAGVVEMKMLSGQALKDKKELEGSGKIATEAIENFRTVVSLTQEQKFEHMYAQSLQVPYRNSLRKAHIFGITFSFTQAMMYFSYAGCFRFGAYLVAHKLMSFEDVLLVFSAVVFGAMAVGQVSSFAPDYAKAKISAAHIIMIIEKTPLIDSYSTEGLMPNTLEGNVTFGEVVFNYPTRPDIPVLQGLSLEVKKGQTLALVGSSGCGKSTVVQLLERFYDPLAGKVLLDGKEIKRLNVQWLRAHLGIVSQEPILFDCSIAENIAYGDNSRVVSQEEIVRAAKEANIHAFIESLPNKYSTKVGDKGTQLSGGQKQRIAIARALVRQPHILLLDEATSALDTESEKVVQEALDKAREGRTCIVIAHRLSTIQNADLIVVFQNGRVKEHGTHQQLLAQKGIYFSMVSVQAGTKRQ
Multidrug resistance-associated protein 1, sequence (P33527 whole entry): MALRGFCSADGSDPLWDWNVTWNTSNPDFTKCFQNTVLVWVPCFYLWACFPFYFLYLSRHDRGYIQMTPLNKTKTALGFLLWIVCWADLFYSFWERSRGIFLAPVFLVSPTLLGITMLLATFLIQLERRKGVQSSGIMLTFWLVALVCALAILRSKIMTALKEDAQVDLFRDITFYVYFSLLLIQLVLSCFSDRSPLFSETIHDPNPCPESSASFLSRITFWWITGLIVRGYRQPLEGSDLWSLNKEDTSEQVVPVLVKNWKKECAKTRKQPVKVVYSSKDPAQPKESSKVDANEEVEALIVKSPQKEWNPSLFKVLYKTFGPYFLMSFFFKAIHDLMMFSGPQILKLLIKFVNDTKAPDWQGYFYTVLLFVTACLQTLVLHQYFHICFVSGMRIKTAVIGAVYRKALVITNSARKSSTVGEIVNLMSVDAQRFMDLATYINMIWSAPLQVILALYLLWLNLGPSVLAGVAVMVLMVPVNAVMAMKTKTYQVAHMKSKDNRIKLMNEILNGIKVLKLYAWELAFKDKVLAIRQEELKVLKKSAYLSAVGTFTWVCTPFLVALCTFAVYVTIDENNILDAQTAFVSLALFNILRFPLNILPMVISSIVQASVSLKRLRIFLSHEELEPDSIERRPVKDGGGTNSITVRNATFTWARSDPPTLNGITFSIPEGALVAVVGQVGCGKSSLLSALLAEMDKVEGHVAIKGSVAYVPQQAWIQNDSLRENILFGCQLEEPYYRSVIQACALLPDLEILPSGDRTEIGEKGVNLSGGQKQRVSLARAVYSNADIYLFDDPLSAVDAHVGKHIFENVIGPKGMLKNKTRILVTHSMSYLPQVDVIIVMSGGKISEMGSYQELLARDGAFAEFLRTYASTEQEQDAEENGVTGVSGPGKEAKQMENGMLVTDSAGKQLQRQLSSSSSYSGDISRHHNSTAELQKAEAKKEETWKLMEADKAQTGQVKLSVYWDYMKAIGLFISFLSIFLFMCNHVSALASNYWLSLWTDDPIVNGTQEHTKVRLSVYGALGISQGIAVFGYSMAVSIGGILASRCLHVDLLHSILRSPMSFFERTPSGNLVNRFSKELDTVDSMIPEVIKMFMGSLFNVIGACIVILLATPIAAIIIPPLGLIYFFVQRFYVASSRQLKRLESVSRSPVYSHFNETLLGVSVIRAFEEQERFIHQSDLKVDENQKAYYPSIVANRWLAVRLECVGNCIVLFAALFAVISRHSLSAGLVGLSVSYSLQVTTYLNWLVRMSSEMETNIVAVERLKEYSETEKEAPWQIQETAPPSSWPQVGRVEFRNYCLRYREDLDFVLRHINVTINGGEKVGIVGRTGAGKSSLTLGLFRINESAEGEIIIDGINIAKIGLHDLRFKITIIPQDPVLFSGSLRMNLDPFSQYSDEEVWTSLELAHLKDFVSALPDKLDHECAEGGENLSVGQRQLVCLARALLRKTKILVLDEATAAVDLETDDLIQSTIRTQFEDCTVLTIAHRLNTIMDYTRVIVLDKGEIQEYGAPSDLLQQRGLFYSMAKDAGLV

With `O=c1c2c([nH]c3nc(SCc4nc5ccccc5s4)nn13)CCC2` the fold induction at up to 40 µM [1] was 2.5, the Activity [2] was “Non-toxic” and the Activity (CT26/TAXOL [3]) was “Active”. The viability at 2 µM (KB-C2 [4]) was 96.2%, the Activity [5] was “Non-toxic” and the Activity [6] was “Non-toxic”. The Activity [7] was “Non-toxic”, the Activity [8] was “Non-toxic” and the Activity [9] was “Non-toxic”. For the same molecule, the Activity (CT26/TAXOL [10]) was “Active”, the AUC(0-inf) [11] was 0.915 µg·h/mL and the AUC(0-t) at 12 h [12] was 0.88 µg·h/mL. The “Ratio IC50” value (KB-C2 [13]) was 443.74, the Activity [14] was “Non-toxic” and the Activity (CT26/TAXOL [15]) was “Active”. For the same molecule, the viability at 2 µM (SW-620 [16]) was 95.9%, the half-life [17] was 5.37 h and the “Ratio IC50” value [18] was 10.9. The bioavailability [19] was 63.9%, the Activity (CD8-positive T cell) was “Active” and the Activity [20] was “Not_active”. The viability at 2 µM (HEK293) was 98.2%, the Activity [21] was “Non-toxic” and the viability at 4 µM (SW-620 [22]) was 92.4%. The Activity [23] was “Non-toxic”, the Activity [24] was “Active” and the Activity [25] was “Non-toxic”. The “Ratio IC50” value (KB-C2 [26]) was 106.85, the Activity (CT26/TAXOL [27]) was “Not active; Compound Showed Negligible Effect” and the Activity [28] was “Non-toxic”. For the same molecule, the MRT last at 12 h [29] was 6.87 h and the “Ratio IC50” value [30] was 7.82.
